Consider 40 compounds from patent US11505558B1, “Antiviral heterocyclic compounds” (Enanta Pharmaceuticals, Inc., priority 2019, dated 2022).

For this assay, the system named is genotype A, "Long" strain RSV. Briefly: RSV-A assay (CPE, ATPlite readout in Hep-2 cells). Format: cell-based. The conditions noted are these: human respiratory syncytial virus, HEp-2, Hep-2 cells, genotype A "Long" strain RSV, MOI 0.1; read-out: Human RSV-A (“Long” strain) EC50. Summed up: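 Protection from RSV-induced cytopathic effect, measured as ATPlite luminescence after 5 days, gave EC50 values. Assay used genotype A Long strain at MOI 0.1 on Hep-2 cells seeded at 8,000/well in DMEM growth media with 10% FBS; compounds tested as 2-fold dilutions in duplicate.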
On the technique in general: ATP-based viability assays read luminescence as a measure of living cells.
With `C[C@]1(C(N)=O)COc2c1cc([C@@](O)(CNC(=O)c1cc(OC3CC3)c3ncccc3c1)C(F)(F)F)nc2-c1ccc(Cl)c(F)c1` [Example 282], the EC50 – broadly, the concentration needed to bring the measured effect to its halfway point – was < 200 nM.

In the case of `Cc1ccc(-c2nc([C@@](O)(CNC(=O)c3cc(OC4CC4)c4ncccc4c3)C(F)(F)F)cc3c2OC[C@]3(C)C(N)=O)cc1` [Example 283], the EC50 was < 200 nM.

Consider `CNC(=O)[C@@]1(C)COc2c1cc([C@@](O)(CNC(=O)c1cc(NC(N)=O)c3ncccc3c1)C(F)(F)F)nc2-c1ccc(F)cc1` [Example 284], for which the EC50 was < 200 nM.

With `C[C@]1(C(N)=O)COc2c1cc([C@@](O)(CNC(=O)c1cc(OCC(F)F)c3ncccc3c1)C(F)(F)F)nc2-c1ccc(F)cc1` [Example 285], the EC50 is < 200 nM.

Turning to `CO[C@@H](C)COc1cc(C(=O)NC[C@](O)(c2cc3c(c(-c4ccc(F)cc4)n2)OC[C@]3(C)C(N)=O)C(F)(F)F)cc2cccnc12` [Example 286], the EC50 was > 200 nM.

Regarding `C[C@]1(C(N)=O)COc2c1cc([C@@](O)(CNC(=O)c1ccc3nc[nH]c3c1)C(F)(F)F)nc2-c1ccc(F)cc1` [Example 291], the EC50 was < 200 nM.

In the case of `C[C@]1(C(N)=O)COc2c1cc([C@@](O)(CNC(=O)c1cc3cncnc3[nH]1)C(F)(F)F)nc2-c1ccc(F)cc1` [Example 292], the EC50 was > 200 nM.

On to `C[C@]1(C(N)=O)COc2c1cc([C@@](O)(CNC(=O)c1n[nH]c3ccncc13)C(F)(F)F)nc2-c1ccc(F)cc1` [Example 293], for which the EC50 is > 200 nM.

`C[C@]1(C(N)=O)COc2c1cc([C@@](O)(CNC(=O)c1ccc(F)c(OC3CC3)c1)C(F)(F)F)nc2-c1ccc(F)cc1` [Example 294]: the EC50 is < 200 nM.

Regarding `C[C@]1(C(N)=O)COc2c1cc([C@@](O)(CNC(=O)c1cc(C(N)=O)ccn1)C(F)(F)F)nc2-c1ccc(F)cc1` [Example 295], the EC50 was > 200 nM.

Consider `C[C@]1(C(N)=O)COc2c1cc([C@@](O)(CNC(=O)c1cncc(C(N)=O)c1)C(F)(F)F)nc2-c1ccc(F)cc1` [Example 296], for which the EC50 was > 200 nM.

On to `CCOc1ccc2[nH]c(C(=O)NC[C@](O)(c3cc4c(c(-c5ccc(F)cc5)n3)OC[C@]4(C)C(N)=O)C(F)(F)F)cc2c1` [Example 297], for which the EC50 was > 200 nM.

Take `C[C@]1(C(N)=O)COc2c1cc([C@@](O)(CNC(=O)c1cncnc1)C(F)(F)F)nc2-c1ccc(F)cc1` [Example 298]: the EC50 was > 200 nM.

For the compound `C[C@]1(C(N)=O)COc2c1cc([C@@](O)(CNC(=O)c1cnccn1)C(F)(F)F)nc2-c1ccc(F)cc1` [Example 299], the EC50 was > 200 nM.

With `Cn1ncc2ccc(C(=O)NC[C@](O)(c3cc4c(c(-c5ccc(F)cc5)n3)OC[C@]4(C)C(N)=O)C(F)(F)F)cc21` [Example 300], the EC50 is < 200 nM.

As for `C[C@]1(C(N)=O)COc2c1cc([C@@](O)(CNC(=O)c1ccnc(C(F)(F)F)n1)C(F)(F)F)nc2-c1ccc(F)cc1` [Example 301], the EC50 was > 200 nM.

Consider `C[C@]1(C(N)=O)COc2c1cc([C@@](O)(CNC(=O)c1nc3cccnc3[nH]1)C(F)(F)F)nc2-c1ccc(F)cc1` [Example 302], for which the EC50 was > 200 nM.

`C[C@]1(C(N)=O)COc2c1cc([C@@](O)(CNC(=O)c1cc3cccnc3[nH]1)C(F)(F)F)nc2-c1ccc(F)cc1` [Example 303]: the EC50 is < 200 nM.

In the case of `COc1ccc2cc(C(=O)NC[C@](O)(c3cc4c(c(-c5ccc(F)cc5)n3)OC[C@]4(C)C(N)=O)C(F)(F)F)[nH]c2c1` [Example 304], the EC50 was < 200 nM.

For the compound `COc1cncc(C(=O)NC[C@](O)(c2cc3c(c(-c4ccc(F)cc4)n2)OC[C@]3(C)C(N)=O)C(F)(F)F)c1` [Example 305], the EC50 was > 200 nM.

Regarding `C[C@]1(C(N)=O)COc2c1cc([C@@](O)(CNC(=O)c1ccc3cc[nH]c3n1)C(F)(F)F)nc2-c1ccc(F)cc1` [Example 306], the EC50 is > 200 nM.

For `C[C@]1(C(N)=O)COc2c1cc([C@@](O)(CNC(=O)c1cn3ncccc3n1)C(F)(F)F)nc2-c1ccc(F)cc1` [Example 307], the EC50 is > 200 nM.

In the case of `C[C@]1(C(N)=O)COc2c1cc([C@@](O)(CNC(=O)c1ccccc1)C(F)(F)F)nc2-c1ccc(F)cc1` [Example 308], the EC50 was > 200 nM.

Consider `COc1cccc(C(=O)NC[C@](O)(c2cc3c(c(-c4ccc(F)cc4)n2)OC[C@]3(C)C(N)=O)C(F)(F)F)c1` [Example 309], for which the EC50 was > 200 nM.

Regarding `COc1cc(C(=O)NC[C@](O)(c2cc3c(c(-c4ccc(F)cc4)n2)OC[C@]3(C)C(N)=O)C(F)(F)F)ccc1O` [Example 310], the EC50 is < 200 nM.

Regarding `C[C@]1(C(N)=O)COc2c1cc([C@@](O)(CNC(=O)c1ccc3[nH]ccc3c1)C(F)(F)F)nc2-c1ccc(F)cc1` [Example 311], the EC50 was < 200 nM.

For the compound `COc1nc2ccc(C(=O)NC[C@](O)(c3cc4c(c(-c5ccc(F)cc5)n3)OC[C@]4(C)C(N)=O)C(F)(F)F)cc2s1` [Example 312], the EC50 was < 200 nM.

On to `C[C@]1(C(N)=O)COc2c1cc([C@@](O)(CNC(=O)c1ccc3c(c1)NC(=O)CO3)C(F)(F)F)nc2-c1ccc(F)cc1` [Example 313], for which the concentration for a half-maximal effect (EC50) was > 200 nM.

Turning to `C[C@]1(C(N)=O)COc2c1cc([C@@](O)(CNC(=O)c1ccc3nc(C(F)(F)F)sc3c1)C(F)(F)F)nc2-c1ccc(F)cc1` [Example 314], the EC50 was < 200 nM.

Regarding `Cn1nnc2cc(C(=O)NC[C@](O)(c3cc4c(c(-c5ccc(F)cc5)n3)OC[C@]4(C)C(N)=O)C(F)(F)F)ccc21` [Example 315], the EC50 was > 200 nM.

Take `COc1cc(C(=O)NC[C@](O)(c2cc3c(c(-c4ccc(F)cc4)n2)OC[C@]3(C)C(N)=O)C(F)(F)F)ccc1F` [Example 316]: the EC50 was > 200 nM.

Regarding `COc1cc(C(=O)NC[C@](O)(c2cc3c(c(-c4ccc(F)cc4)n2)OC[C@@]3(C)C(N)=O)C(F)(F)F)ccc1OCCF` [Example 317], the EC50 was > 200 nM.

`COc1cc(C(=O)NC[C@](O)(c2cc3c(c(-c4ccc(F)cc4)n2)OC[C@]3(C)C(N)=O)C(F)(F)F)ccc1C#N` [Example 318]: the EC50 is > 200 nM.

Turning to `COc1ccc(C(=O)NC[C@](O)(c2cc3c(c(-c4ccc(F)cc4)n2)OC[C@]3(C)C(N)=O)C(F)(F)F)cc1C#N` [Example 319], the EC50 is < 200 nM.

Regarding `C[C@]1(C(N)=O)COc2c1cc([C@@](O)(CNC(=O)c1ccc(C#N)c(F)c1)C(F)(F)F)nc2-c1ccc(F)cc1` [Example 320], the EC50 was > 200 nM.

Consider `C[C@]1(C(N)=O)COc2c1cc([C@@](O)(CNC(=O)c1ccc3[nH]c(=O)[nH]c3c1)C(F)(F)F)nc2-c1ccc(F)cc1` [Example 321], for which the EC50 was > 200 nM.

`Cn1c(=O)n(C)c2cc(C(=O)NC[C@](O)(c3cc4c(c(-c5ccc(F)cc5)n3)OC[C@]4(C)C(N)=O)C(F)(F)F)ccc21` [Example 322]: the EC50 was > 200 nM.

On to `C[C@]1(C(N)=O)COc2c1cc([C@@](O)(CNC(=O)c1ccc3oc(=O)[nH]c3c1)C(F)(F)F)nc2-c1ccc(F)cc1` [Example 323], for which the EC50 was > 200 nM.

Take `C[C@]1(C(N)=O)COc2c1cc([C@@](O)(CNC(=O)c1ccc(F)c(C#N)c1)C(F)(F)F)nc2-c1ccc(F)cc1` [Example 324]: the EC50 was > 200 nM.

Turning to `Cn1c(=O)[nH]c2cc(C(=O)NC[C@](O)(c3cc4c(c(-c5ccc(F)cc5)n3)OC[C@]4(C)C(N)=O)C(F)(F)F)ccc21` [Example 325], the EC50 is > 200 nM.
